Data as given in patent US20260103465A1, “GLYCOGEN SYNTHASE KINASE 3 INHIBITORS AND USES THEREOF” (The Broad Institute, Inc., priority 2023, published 2026).
pIC50: −log10 of the molar value. Read-outs that look alike come from different tables or passages of the source.

Key:
[1] = test system: MDR1-MDCK cell monolayers; experiment: MDR1/MDCK permeability assay; assay type: in vitro ADME; details: for MDCK Permeability (MDR1-MDCK); Mean; Papp(A-B) (10^−6 cm/s): A to B; for MDCK Permeability (MDR1-MDCK); Mean; Papp(B-A) (10^−6 cm/s): B to A; for MDCK Permeability (MDR1-MDCK); Mean; P. Ratio(B-A/A-B) Efflux Ratio / MIDCK Permeability (MDR1-MDCK); Mean; P. Ratio(B-A/A-B) Efflux Ratio: Papp B-A/A-B
From the text: The MDR1/MDCK assay is run at WuXi and Absorption Systems. This assay is used to determine the blood-brain barrier (BBB) penetration potential of a test compound using MDR1-MDCK cell monolayers. Catalog number EA203.
• The percent recovery of the test compound from the Transwell® wells containing MDR1-MDCK cell monolayers • The apparent permeability (Papp) in both directions • The efflux ratio (Papp B to A)/(Papp A to B) • The blood-brain barrier penetration potential classification: • High when • Papp A to B≥3.0×10^−6 cm/s, and efflux<3.0 • Moderate when • Papp A to B≥3.0×10^−6 cm/s, and 10>efflux≥3.0 • Low when either • Papp A to B≥3.0×10^−6 cm/s, and […], or when • Papp A to B<[…].
• Test compound at 5 μM in HBSSg with maximum DMSO concentration not greater than 1%.
• Confluent monolayers of MDR1-MDCK cells, 7 to 11 days old.
• Receiver well with 1% BSA in modified Hanks buffer (HBSSg) • Apical and basolateral side at pH 7.4 • Dose two monolayers in each direction (N=2) • Dose apical side for (A to B) assessment • Dose basolateral side for (B to A) assessment • Sample both apical and basolateral sides at 120 minutes • Determine the concentrations of test compound using a generic LC-MS/MS method with a minimum 4 point calibration curve.
• The quality of the cell monolayer batch is verified using control compounds before monolayers are released for use • The quality of each monolayer used in the assay is verified by a TEER measurement and by calculating the Papp for a control compound.

[2] = target: T1, GSK3a (GST-full length GSK3a) (Homo sapiens, UniProt P49840); experiment: GSK3a TR-FRET kinase inhibition assay; assay type: biochemical
T1 construct: GST-full length GSK3a [SignalChem G08-10G]; purchased SignalChem G08-10G
Procedure, shortened: (§1)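 GST-tagged full-length human kinase (1 nM), pre-incubated 30 min with compound, then reacted 100 min at ambient temperature at pH 7.5 with 200 nM biotinylated phospho-S645 glycogen synthase 631–650 peptide and ATP at 2 μM–1 mM. After EDTA quench, Tb-pSer641 antibody/streptavidin-d2 TR-FRET 665/615 ratio fitted for IC50.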

[3] = target: T2, GSK3b (GST-full length GSK3b) (Homo sapiens, UniProt P49841); experiment: GSK3b TR-FRET kinase inhibition assay; assay type: biochemical
T2 construct: GST-full length GSK3b: [SignalChem G08-9G]; purchased SignalChem G08-9G
Procedure, shortened: as §1

[4] = Human liver microsomal stability; assay type: in vitro ADME; details: human liver microsomes
Description: Stability of compound (5 μL of a 10 mM DMSO solution) in human liver microsomes was tested in duplicate by incubating compound at 1 μM for 60 minutes at 37° C. Compound level at 60 minutes was compared to level at 0 minutes, and percent remaining was calculated. Order by selecting Microsomal Stability in Prometheus, checking boxes for desired species. Assay Controls: microsomes with NADPH without compound-matrix interference. Microsomes plus compound without NADPH—non-enzymatic instability.

[5] = 4 μM ATP, read-out: GSK3α TR-FRET 4 μM ATP GMean IC50
[6] = 2 μM ATP, read-out: GSK3β TR-FRET 2 μM ATP GMean IC50
[7] = 10 μM ATP, read-out: GSK3a 10 μM ATP Average IC50
[8] = 100 μM ATP, read-out: GSK3a 100 μM ATP Average IC50
[9] = 1 mM ATP, Table 3, read-out: GSK3a TR-FRET 1 mM ATP Average IC50
[10] = 10 μM ATP, read-out: GSK3b 10 μM ATP Average IC50
[11] = 100 μM ATP, read-out: GSK3b 100 μM ATP Average IC50
[12] = 1 mM ATP, Table 3, read-out: GSK3b TR-FRET 1 mM ATP Average IC50
[13] = 1 mM ATP, Table 4, read-out: GSK3α TR-FRET 1 mM ATP GMean IC50
[14] = 1 mM ATP, Table 4, read-out: GSK3β TR-FRET 1 mM ATP GMean IC50

T2 sequence (P49841 whole entry): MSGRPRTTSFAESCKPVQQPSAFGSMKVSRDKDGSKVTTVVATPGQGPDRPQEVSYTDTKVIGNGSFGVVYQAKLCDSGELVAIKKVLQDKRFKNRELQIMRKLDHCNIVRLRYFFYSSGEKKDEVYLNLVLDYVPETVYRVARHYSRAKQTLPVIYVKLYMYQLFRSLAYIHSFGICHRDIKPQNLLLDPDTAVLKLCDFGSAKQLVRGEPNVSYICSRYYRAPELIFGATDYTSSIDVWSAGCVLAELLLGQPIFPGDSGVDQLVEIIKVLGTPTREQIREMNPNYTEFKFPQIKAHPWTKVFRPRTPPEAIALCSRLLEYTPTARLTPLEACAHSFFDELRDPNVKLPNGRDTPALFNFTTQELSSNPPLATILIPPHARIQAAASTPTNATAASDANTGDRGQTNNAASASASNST
T1 sequence (P49840 whole entry): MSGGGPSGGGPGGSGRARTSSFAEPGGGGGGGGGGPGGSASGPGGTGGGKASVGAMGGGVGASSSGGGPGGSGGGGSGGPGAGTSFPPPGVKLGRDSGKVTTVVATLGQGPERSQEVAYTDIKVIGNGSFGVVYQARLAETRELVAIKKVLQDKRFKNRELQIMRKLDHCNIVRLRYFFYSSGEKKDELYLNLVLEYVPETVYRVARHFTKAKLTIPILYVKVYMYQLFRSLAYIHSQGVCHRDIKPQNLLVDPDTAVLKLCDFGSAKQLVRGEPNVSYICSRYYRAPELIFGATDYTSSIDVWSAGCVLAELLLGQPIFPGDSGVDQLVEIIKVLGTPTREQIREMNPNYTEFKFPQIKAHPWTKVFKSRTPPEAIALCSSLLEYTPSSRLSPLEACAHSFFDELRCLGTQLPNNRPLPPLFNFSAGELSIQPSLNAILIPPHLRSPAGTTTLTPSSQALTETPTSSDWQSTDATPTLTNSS

MDCK Permeability (MDR1-MDCK); Mean; Papp(A-B) (10^−6 cm/s) ([1]; Table 4) | MDCK Permeability (MDR1-MDCK); Mean; Papp(B-A) (10^−6 cm/s) ([1]; Table 4) | MDCK Permeability (MDR1-MDCK); Mean; P. Ratio(B-A/A-B) Efflux Ratio ([1]; Table 4) | pIC50 [2, 5] | pIC50 [3, 6] | Microsome Stability (Human) (DMPK_BIIB); Mean; in vitro t1/2 ([4]; Table 4) [min] | MDCK Permeability (MDR1-MDCK); Mean; Papp(A-B) (10^−6 cm/s) ([1]; Table 3) | MDCK Permeability (MDR1-MDCK); Mean; Papp(B-A) (10^−6 cm/s) ([1]; Table 3) | MIDCK Permeability (MDR1-MDCK); Mean; P. Ratio(B-A/A-B) Efflux Ratio ([1]; Table 3) | pIC50 [2, 7] | pIC50 [2, 8] | pIC50 [2, 9] | pIC50 [3, 10] | pIC50 [3, 11] | pIC50 [3, 12] | Microsome Stability (Human) (DMPK_BIIB); Mean; in vitro t1/2 ([4]; Table 3) [min] | pIC50 [2, 13] | pIC50 [3, 14] | Structure (SMILES)
– | – | – | – | – | – | 22 10^−6 cm/s | 19 10^−6 cm/s | 0.87 | ≥ 7.00 | 6.00 to 7.00 | 5.30 to 6.00 | ≥ 7.00 | 6.00 to 7.00 | 5.30 to 6.00 | 14 | – | – | CCC1(c2ccccc2)C2=C(CC(C)(C)CC2=O)Nc2ncccc21 (single isomer, unassigned) [Compound 102A]
– | – | – | – | – | – | 1.3 10^−6 cm/s | 0.75 10^−6 cm/s | 0.60 | 6.00 to 7.00 | 5.30 to 6.00 | 4.70 to 5.30 | 6.00 to 7.00 | 6.00 to 7.00 | 4.70 to 5.30 | 0.53 | – | – | CC(C)(C)Cc1ccnc2c1C(C)(c1ccccc1)C1=C(CC(C)(C)CC1=O)N2 (single isomer, unassigned) [Compound 130B]
22 10^−6 cm/s | 31 10^−6 cm/s | 1.4 | – | – | 5.4 | – | – | – | – | – | 5.30 to 6.00 | – | – | 4.70 to 5.30 | – | – | – | CCC1(c2ccccc2)C2=C(CC3(CCC3)CC2=O)Nc2ncccc21 (single isomer, unassigned) [Compound 110A]
2.3 10^−6 cm/s | 41 10^−6 cm/s | 18 | ≥ 7.00 | ≥ 7.00 | 9.9 | – | – | – | ≥ 7.00 | ≥ 7.00 | 6.00 to 7.00 | ≥ 7.00 | ≥ 7.00 | 6.00 to 7.00 | 16 | ≥ 7.00 | 6.00 to 7.00 | CCC1(c2cccc(-c3cncn3C(C)C)c2)C2=C(CC(C)(C)CC2=O)Nc2ncccc21 (single isomer, unassigned) [Compound 149A]

The remaining lines, values behind:

Structure (SMILES) | MDCK Permeability (MDR1-MDCK); Mean; Papp(A-B) (10^−6 cm/s) ([1]; Table 4) | MDCK Permeability (MDR1-MDCK); Mean; Papp(B-A) (10^−6 cm/s) ([1]; Table 4) | MDCK Permeability (MDR1-MDCK); Mean; P. Ratio(B-A/A-B) Efflux Ratio ([1]; Table 4) | pIC50 [2, 5] | pIC50 [3, 6] | Microsome Stability (Human) (DMPK_BIIB); Mean; in vitro t1/2 ([4]; Table 4) [min] | MDCK Permeability (MDR1-MDCK); Mean; Papp(A-B) (10^−6 cm/s) ([1]; Table 3) | MDCK Permeability (MDR1-MDCK); Mean; Papp(B-A) (10^−6 cm/s) ([1]; Table 3) | MIDCK Permeability (MDR1-MDCK); Mean; P. Ratio(B-A/A-B) Efflux Ratio ([1]; Table 3) | pIC50 [2, 7] | pIC50 [2, 8] | pIC50 [2, 9] | pIC50 [3, 10] | pIC50 [3, 11] | pIC50 [3, 12] | Microsome Stability (Human) (DMPK_BIIB); Mean; in vitro t1/2 ([4]; Table 3) [min] | pIC50 [2, 13] | pIC50 [3, 14]
CCC1(c2cccc(O)c2)C2=C(CC(C)(C)CC2=O)Nc2ncc(F)cc21 (single isomer, unassigned) [Compound 1010A] | 0.60 10^−6 cm/s | 28 10^−6 cm/s | 51 | < 5.30 | < 5.30 | 6.1 | – | – | – | – | – | – | – | – | – | – | – | –
CCC1(c2cccc(-c3ccccn3)c2)C2=C(CC(C)(C)CC2=O)Nc2ncccc21 (single isomer, unassigned) [Compound 1016A] | 4.5 10^−6 cm/s | 32 10^−6 cm/s | 6.9 | ≥ 7.00 | ≥ 7.00 | 1.5 | – | – | – | – | – | – | – | – | – | – | – | –
CCC1(c2cccc(O)c2)C2=C(CC(C)(C)CC2=O)Nc2ncccc21 (single isomer, unassigned) [Compound 1004A] | 1.2 10^−6 cm/s | 42 10^−6 cm/s | 37 | ≥ 7.00 | ≥ 7.00 | 7.7 | – | – | – | – | – | – | – | – | – | – | – | –
CCC1(c2cccc(-c3cc(C)ncc3C)c2)C2=C(CC(C)(C)CC2=O)Nc2ncccc21 (single isomer, unassigned) [Compound 1027B] | 5.1 10^−6 cm/s | 30 10^−6 cm/s | 5.8 | ≥ 7.00 | 6.00 to 7.00 | 3.1 | – | – | – | – | – | – | – | – | – | – | – | –
CCC1(c2cccc(O)c2)C2=C(CC(C)(C)CC2=O)Nc2ncccc21 (single isomer, unassigned) [Compound 1004B] | 0.7 10^−6 cm/s | 47 10^−6 cm/s | 65 | 5.30 to 6.00 | < 5.30 | 5.3 | – | – | – | – | – | – | – | – | – | – | – | –
CCC1(c2ccccc2)C2=C(CC3(CCC3)CC2=O)Nc2ncc(F)cc21 (single isomer, unassigned) [Compound 1008A] | 22 10^−6 cm/s | 26 10^−6 cm/s | 1.2 | ≥ 7.00 | ≥ 7.00 | 19 | – | – | – | – | – | – | – | – | – | – | 6.00 to 7.00 | 5.30 to 6.00
CCC1(c2cccc(-c3cn(C)nc3C)c2)C2=C(CC(C)(C)CC2=O)Nc2ncc(F)cc21 (single isomer, unassigned) [Compound 1032B] | 2.3 10^−6 cm/s | 26 10^−6 cm/s | 11 | ≥ 7.00 | ≥ 7.00 | 6.4 | – | – | – | – | – | – | – | – | – | – | – | –
CCC1(c2ccccc2)C2=C(CC(C)(C)CC2=O)Nc2ncccc21 (single isomer, unassigned) [102 B] | 6.7 10^−6 cm/s | 29 10^−6 cm/s | 4.3 | < 5.30 | < 5.30 | 1.2 | – | – | – | – | – | – | – | – | – | – | – | –
CCC1(c2ccccc2)C2=C(CC(C)(C)NC2=O)Nc2ncc(F)cc21 (single isomer, unassigned) [Compound 1007B] | 7.8 10^−6 cm/s | 45 10^−6 cm/s | 5.7 | ≥ 7.00 | ≥ 7.00 | 211 | – | – | – | – | – | – | – | – | – | – | 5.30 to 6.00 | 4.70 to 5.30
CCC1(c2cccc(-c3ccncc3)c2)C2=C(CC(C)(C)CC2=O)Nc2ncccc21 (single isomer, unassigned) [Compound 1017A] | 6.9 10^−6 cm/s | 32 10^−6 cm/s | 4.6 | ≥ 7.00 | 6.00 to 7.00 | 6.2 | – | – | – | – | – | – | – | – | – | – | – | –
CCC1(c2cccc(-c3ccnc(C)c3C)c2)C2=C(CC(C)(C)CC2=O)Nc2ncccc21 (single isomer, unassigned) [147 B] | 8.1 10^−6 cm/s | 31 10^−6 cm/s | 3.8 | ≥ 7.00 | ≥ 7.00 | 14 | – | – | – | – | – | – | – | – | – | – | 6.00 to 7.00 | 5.30 to 6.00
CCC1(c2ccccc2)C2=C(Nc3ncccc31)C(F)C(C)(C)CC2=O (single isomer, unassigned) [Compound 1006C] | 18 10^−6 cm/s | 31 10^−6 cm/s | 1.8 | 5.30 to 6.00 | 5.30 to 6.00 | 37 | – | – | – | – | – | – | – | – | – | – | – | –
